In patent US20130267532A1, “CYCLIC AMIDE COMPOUNDS AND THEIR USE IN THE TREATMENT OF DISEASE” (priority 2010, published 2013):

Target: T1, hERG current (Homo sapiens, UniProt Q12809)
T1 construct: expressed in transfected cells; host or cells: CHO-K1 cells expressing hERG (Persson et al., J. Cardiovasc. Electrophysiol. 16, 329-341, 2005)
Assay: hERG analysis Method 2 (IonWorks HT, CHO cells)
Type: cell-based
Details: hERG-expressing CHO cells, ~21° C., 8-point non-cumulative curves
Method: The hERG-expressing Chinese hamster ovary K1 (CHO) cells described by (Persson, Carlsson, Duker, & Jacobson, 2005) are grown to semi-confluence at 37° C. in a humidified environment (5% CO2) in F-12 Ham medium containing L-glutamine, 10% foetal calf serum (FCS) and 0.6 mg/mL hygromycin (all available from Sigma-Aldrich). Prior to use, the monolayer is washed using a pre-warmed (37° C.) 3 mL aliquot of Versene 1:5,000 (Invitrogen). After aspiration of this solution the flask is incubated at 37° C. in an incubator with a further 2 mL of Versene 1:5,000 for a period of 6 minutes. Cells are then detached from the bottom of the flask by gentle tapping and 10 mL of Dulbecco's Phosphate-Buffered Saline containing calcium (0.9 mM) and magnesium (0.5 mM) (PBS; Invitrogen) is then added to the flask and aspirated into a 15 mL centrifuge tube prior to centrifugation (50 g, for 4 mins). The resulting supernatant is discarded and the pellet gently re-suspended in 3 mL of PBS. A 0.5 mL aliquot of cell suspension is removed and the number of viable cells (based on trypan blue exclusion) is determined in an automated reader (Cedex; Innovatis) so that the cell re-suspension volume can be adjusted with PBS to give the desired final cell concentration. It is the cell concentration at this point in the assay that is quoted when referring to this parameter. […]

T1 sequence (Q12809 whole entry): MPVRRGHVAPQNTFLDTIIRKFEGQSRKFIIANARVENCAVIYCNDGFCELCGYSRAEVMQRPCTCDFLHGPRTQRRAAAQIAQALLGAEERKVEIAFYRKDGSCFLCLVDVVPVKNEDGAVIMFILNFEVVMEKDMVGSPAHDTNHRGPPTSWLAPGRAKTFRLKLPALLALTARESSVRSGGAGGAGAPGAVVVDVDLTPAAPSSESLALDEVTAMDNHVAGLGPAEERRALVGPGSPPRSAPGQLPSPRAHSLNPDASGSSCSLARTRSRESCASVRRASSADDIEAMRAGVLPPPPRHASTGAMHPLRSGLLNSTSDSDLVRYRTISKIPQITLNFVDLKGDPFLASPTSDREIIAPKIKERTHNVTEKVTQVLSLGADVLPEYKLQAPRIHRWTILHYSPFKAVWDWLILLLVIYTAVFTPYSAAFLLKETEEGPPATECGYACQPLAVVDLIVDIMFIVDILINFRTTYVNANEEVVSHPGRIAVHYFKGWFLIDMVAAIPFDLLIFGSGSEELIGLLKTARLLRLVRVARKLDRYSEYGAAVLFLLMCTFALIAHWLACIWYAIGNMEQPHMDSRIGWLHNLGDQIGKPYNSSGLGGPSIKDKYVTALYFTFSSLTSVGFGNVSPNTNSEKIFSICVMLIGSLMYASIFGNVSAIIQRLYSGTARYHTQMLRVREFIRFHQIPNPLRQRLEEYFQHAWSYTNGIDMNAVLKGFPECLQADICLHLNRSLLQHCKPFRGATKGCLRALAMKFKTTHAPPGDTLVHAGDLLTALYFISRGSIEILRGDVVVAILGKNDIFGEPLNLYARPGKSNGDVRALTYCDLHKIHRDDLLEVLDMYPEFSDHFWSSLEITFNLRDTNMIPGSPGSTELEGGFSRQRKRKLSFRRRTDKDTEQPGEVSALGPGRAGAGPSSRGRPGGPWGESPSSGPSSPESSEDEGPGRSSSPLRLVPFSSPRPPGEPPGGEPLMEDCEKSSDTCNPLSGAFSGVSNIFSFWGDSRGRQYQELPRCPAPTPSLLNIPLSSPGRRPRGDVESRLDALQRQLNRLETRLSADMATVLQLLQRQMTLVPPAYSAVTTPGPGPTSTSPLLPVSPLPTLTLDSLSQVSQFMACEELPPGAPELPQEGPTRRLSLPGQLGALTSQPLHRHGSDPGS

SMILES | IC50
CCCCCNc1nc(N)nc(C)c1Cc1ccc(N2CCN(C)CC2=O)cc1OC [Example 2, 1-(4-{[2-Amino-4-methyl-6-(pentylamino)pyrimidin-5-yl]methyl}-3-methoxyphenyl)-4-methylpiperazin-2-one] | 5.41 µM
CCC[C@@H](CCO)Nc1nc(N)nc(C)c1Cc1ccc(N2CCN(C)CC2=O)cc1OC [Example 3, (S)-1-(4-{[2-Amino-4-(1-hydroxyhexan-3-ylamino)-6-methylpyrimidin-5-yl]methyl}-3-methoxyphenyl)-4-methylpiperazin-2-one] | > 33 µM
